Literature values as cited in US4221778A, “Prolonged release pharmaceutical preparations” (Pennwalt Corporation, priority 1979, dated 1980).
Where a name gives a salt, the structure may show the parent alone.

Key:
[1] = not given; remark: listed apart in the source
[2] = not given; remark: listed apart in the source

## COc1ccc2c(c1)[C@]13CCCC[C@@H]1[C@H](C2)N(C)CC3 [Dextromethorphan]
Pathological cough; compared with codeine
  effectiveness in patients with pathological cough: about the equal of codeine
Pathological cough; human, in vivo
  analgesic or addictive properties: no analgesic or addictive properties
  toxicity: quite low
Pathological cough; unlike codeine
  drowsiness: rarely produces drowsiness

## CN[C@@H](C)[C@H](O)c1ccccc1 [Ephedrine]
other
  biological half life in man: about 6 hours

## CC(N)C(O)c1ccccc1 (stereo not shown) [PPA, phenylpropanolamine]
[1]
  pKa: 9.4
other
  biological half life in man: 3.9 hours

## CC(C)(N)Cc1ccccc1 [Phentermine hydrochloride]
[2]; hydrochloride salt, doses of 15 mg. and 30 mg.
  blood levels in humans: rapid peak concentrations

## CC(C)(N)Cc1ccccc1 [Phentermine, phenyl-tertiary-butyl-amine]
[2]; free form
  absorption from the gastrointestinal tract: rapidly absorbed

## CN[C@@H](C)[C@@H](O)c1ccccc1 [Pseudoephedrine]
other
  biological half life in man: 5-7 hours
